Marks after values point to notes of the source that are not given here.

Experiment [1] deals with enzyme of SEQ ID NO:1. The experiment in a line: Screening of carbonyl-containing compounds with ammonia as amine source (specific activity, absorbance at 340 nm). Type of experiment: biochemical, Mycobacterium smegmatis. As to conditions: for Specific activity, SEQ ID NO: 1: 10 mM of carbonyl-containing compound, ammonia as amine source; for activity of enzyme of SEQ ID NO:1 towards the substrate (in words): reductive amination. On the procedure: (§1) All the reactions were conducted at 25° C. in spectrophotometric cell (10 mm light path). To a mixture of ammonium formate buffer (2 M NH4HCO2/NH4OH, pH 9.5), NADH or NADPH (0.2 mM) and an appropriate amount of purified enzyme was added.

Experiment [2] relates to enzyme of SEQ ID NO:2. The experiment is described as above. The format is biochemical, Cystobacter fuscus DSM 2262. As to conditions: for Specific activity, SEQ ID NO: 2: 10 mM of carbonyl-containing compound, ammonia as amine source; for activity of enzyme of SEQ ID NO:2 towards the substrate (in words): reductive amination. On the procedure:
as §1

Experiment [3] relates to enzyme of SEQ ID NO:3. The experiment is described as above. The note with it: for Specific activity, SEQ ID NO: 3: 10 mM of carbonyl-containing compound, ammonia as amine source; for activity of enzyme of SEQ ID NO:3 towards the substrate (in words): reductive amination. The format is biochemical, Microbacterium sp. MA1. The procedure: as §1
Experiment [4] concerns the target PheDH-AmDH K77S/N276L (Pseudobacillus badius, UniProt Q59224, K78S/N277L). The note with it: prior-art engineered enzyme; cited from earlier work.
Experiment [5] relates to enzyme of SEQ ID NO:4. As to the kind of experiment: Screening of carbonyl-containing compounds with ammonia as amine source (specific activity, absorbance at 340 nm). The format is biochemical, Aminomonas paucivorans DSM 12260. Also noted: key to Detection of the expected compound, SEQ ID NO: 4: d: detected activity; nd: not detected activity. The note with it: for activity of enzyme of SEQ ID NO:4 towards the substrate (in words): reductive amination; for Specific activity, SEQ ID NO: 4: 0.2 mM NADH (best of NADH/NADPH), 10 mM of carbonyl-containing compound; for Specific activity, SEQ ID NO: 4 / Detection of the expected compound, SEQ ID NO: 4: ammonia as amine source; for Detection of the expected compound, SEQ ID NO: 4: pH 9.5, 25° C. On the procedure:
All the reactions were conducted at 25° C. in spectrophotometric cell (10 mm light path). To a mixture of ammonium formate buffer (2 M NH4HCO2/NH4OH, pH 9.5), NADH or NADPH (0.2 mM) and an appropriate amount of purified enzyme was added. Carbonyl-containing compound (5 or 10 mM) is then added to initiate the reaction (reaction final volume 100 μL). The initial slope measured at 340 nm determined the specific activity of the enzyme according to Beer-Lambert's law and the molar absorptivity of β-NADH (ϵ=6298 M^−1 cm^−1).

Experiment [6] deals with enzyme of SEQ ID NO:3. As to the kind of experiment: Screening of carbonyl-containing compounds with methylamine as amine source. The format is biochemical, Microbacterium sp. MA1. The note with it: preliminary. The procedure:
(§2) All the reactions were conducted at 25° C. in spectrophotometric cell (10 mm light path). To a mixture of TRIS.HCl buffer (50 mM, pH 9.5), NADH and NADPH (0.1 mM each), methylamine (500 mM) and an appropriate amount of purified enzyme was added. Carbonyl-containing compound (5 mM) is then added to initiate the reaction (reaction final volume 100 μL). The initial slope measured at 340 nm determined the specific activity of the enzyme according to Beer-Lambert's law and the molar absorptivity of β-NADH (ϵ=6298 M^−1 cm^−1).

Experiment [7] relates to enzyme of SEQ ID NO:1. The experiment is described as above. Type of experiment: biochemical, Mycobacterium smegmatis. As to conditions: preliminary. On the procedure:
as §2

Experiment [8] relates to enzyme of SEQ ID NO:5. The description is as above. Type of experiment: biochemical, Mycobacterium vaccae ATCC 25954. The note with it: preliminary. On the procedure:
as §2

Experiment [9] relates to enzyme of SEQ ID NO:2. Described as above. The format is biochemical, Cystobacter fuscus DSM 2262. The note with it: preliminary. The procedure:
as §2

Experiment [10] concerns enzyme of SEQ ID NO:4. The description is as above. As to conditions: preliminary. Type of experiment: biochemical, Aminomonas paucivorans DSM 12260. On the procedure:
as §2

The mark [11] stands for this setting: 0.2 mM NADPH (best of NADH/NADPH).
[12] abbreviates: 0.2 mM NADH (best of NADH/NADPH).
[13] abbreviates: methylamine (500 mM) as amine source, NADH/NADPH (0.1 mM each), carbonyl-containing compound 5 mM.
Setting [14] is: 0.2 mM NADH (best of NADH/NADPH), listed as drawing 150.

PheDH-AmDH K77S/N276L, sequence (Q59224 whole entry K78S/N277L): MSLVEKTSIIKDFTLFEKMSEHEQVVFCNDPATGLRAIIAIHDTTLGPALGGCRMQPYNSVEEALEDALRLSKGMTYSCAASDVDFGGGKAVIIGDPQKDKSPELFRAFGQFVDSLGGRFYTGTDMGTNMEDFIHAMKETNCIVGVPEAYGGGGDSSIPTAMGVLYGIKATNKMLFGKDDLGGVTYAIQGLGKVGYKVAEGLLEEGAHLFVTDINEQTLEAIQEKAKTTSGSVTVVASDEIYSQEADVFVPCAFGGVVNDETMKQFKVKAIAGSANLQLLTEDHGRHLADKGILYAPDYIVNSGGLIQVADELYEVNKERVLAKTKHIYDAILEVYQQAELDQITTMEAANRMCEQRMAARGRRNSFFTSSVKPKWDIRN

Consider `CC1CCCCC1=O` (racemic) [2-methylcyclohexanone], for which the “Specific activity, SEQ ID NO: 1” value in experiment [1] (setting [11]) was 175.3 mU.mg^-1; in [1] (0.2 mM NADPH (best of NADH/NADPH), listed as drawing 132), 175.3^b mU.mg^-1. The “Specific activity, SEQ ID NO: 2” value in experiment [2] (setting [11]) is on record as 14.8^b mU.mg^-1. Moreover, the “Specific activity, SEQ ID NO: 3” value in experiment [3] (setting [12]) is reported as 337.0 mU.mg^-1; in [3] (0.2 mM NADH (best of NADH/NADPH), listed as drawing 132), 337.0a mU.mg^-1. The “specific activity of PheDH-AmDH K77S/N276L” value in [4] is reported as 19.3 mU·mg^−1.

For the compound `CC(=O)CCC(=O)O` [4-oxopentanoic acid], the “activity of enzyme of SEQ ID NO:1 towards the substrate (in words)” value in experiment [1] is “inactive”. In experiment [2], the “activity of enzyme of SEQ ID NO:2 towards the substrate (in words)” value is “inactive”. Further, in [3], the “activity of enzyme of SEQ ID NO:3 towards the substrate (in words)” value was “inactive”. Moreover, the “activity of enzyme of SEQ ID NO:4 towards the substrate (in words)” value in experiment [5] was “inactive”.

For the compound `CC(=O)C1CCCCC1`, the “Specific activity, SEQ ID NO: 1” value in experiment [1] (setting [11]) is recorded as 2.1^b mU.mg^-1. The “Specific activity, SEQ ID NO: 3” value in experiment [3] (setting [11]) is 64.0^b mU.mg^-1.

For `CCC(C)C=O` (centres unmarked) [drawing 124], in experiment [5], the “Specific activity, SEQ ID NO: 4” value was 129.6^a mU.mg^-1 and the “Detection of the expected compound, SEQ ID NO: 4” value (shortened to “Detection … SEQ ID NO: 4”) is on record as “d”.

For `O=Cc1ccccc1`, the “Detection … SEQ ID NO: 4” value in [5] is “d”.

For `CC(C)C=O` [2-methylpropanal], the “Specific activity, SEQ ID NO: 3” value in [6] (setting [13]) was 851.3 mU.mg-^1; in experiment [3] (setting [12]) it was 541.0 mU.mg^-1; in experiment [3] (setting [14]) it was 541.0^a mU.mg^-1. Further, the “activity of enzyme of SEQ ID NO:3 on the substrate with methylamine (in words)” value in [6] (methylamine as amine source) is “active”. For the same compound, the “Specific activity, SEQ ID NO: 1” value in experiment [1] (setting [12]) is on record as 556.5 mU.mg^-1; in experiment [1] (setting [14]) it was 556.5^a mU.mg^-1; in experiment [7] (setting [13]) it was 144.5 mU.mg-^1. Further, the “activity of enzyme of SEQ ID NO:1 on the substrate with methylamine (in words)” value in experiment [7] (methylamine as amine source) is given as “active”. Also, the “Specific activity, SEQ ID NO: 2” value in experiment [2] (setting [12]) was 119.2^a mU.mg^-1; in experiment [9] (setting [13]), 150.2 mU.mg-^1. In addition, in [8] (setting [13]), the “Specific activity, SEQ ID NO: 5” value stood at 262.6 mU.mg-^1. In [8] (methylamine as amine source), the “activity of enzyme of SEQ ID NO:5 on the substrate with methylamine (in words)” value is “active”. Besides, the “activity of enzyme of SEQ ID NO:2 on the substrate with methylamine (in words)” value in experiment [9] (methylamine as amine source) is “active”. Moreover, in [10] (setting [13]), the “Specific activity, SEQ ID NO: 4” value came to 30.3 mU.mg-^1. Moreover, the “activity of enzyme of SEQ ID NO:4 on the substrate with methylamine (in words)” value in experiment [10] (methylamine as amine source) is recorded as “active”.

With `CCCCC=O` [drawing 122], in experiment [5], the “Specific activity, SEQ ID NO: 4” value is 89.1^a mU.mg^-1 and the “Detection … SEQ ID NO: 4” value is recorded as “d”.

For the compound `CC(=O)CC(N)C(=O)O` (centres unmarked) [2-amino-4-oxopentanoic acid], in experiment [1], the “activity of enzyme of SEQ ID NO:1 towards the substrate (in words)” value is “inactive”. The “activity of enzyme of SEQ ID NO:2 towards the substrate (in words)” value in experiment [2] is “inactive”. For the same compound, the “activity of enzyme of SEQ ID NO:3 towards the substrate (in words)” value in experiment [3] is “inactive”. The “activity of enzyme of SEQ ID NO:4 towards the substrate (in words)” value in experiment [5] was “inactive”.

As to `O=C1C=CCCC1`, the “Specific activity, SEQ ID NO: 1” value in [1] (setting [11]) is listed as 7.4^b mU.mg^-1. The “Specific activity, SEQ ID NO: 2” value in [2] (setting [12]) is listed as 2.5^a mU.mg^-1. In addition, the “Specific activity, SEQ ID NO: 3” value in experiment [3] (setting [11]) is reported as 37.1^b mU.mg^-1.

As to `CCC(=O)CC`, in experiment [1] (setting [11]), the “Specific activity, SEQ ID NO: 1” value is 48.2^b mU.mg^-1. Also, in experiment [2] (setting [11]), the “Specific activity, SEQ ID NO: 2” value is recorded as 3.6^b mU.mg^-1. In addition, the “Specific activity, SEQ ID NO: 3” value in [3] (setting [11]) is 192.0^b mU.mg^-1.

With `CC(=O)C(C)C`, the “Specific activity, SEQ ID NO: 1” value in experiment [1] (setting [11]) is listed as 125.8^b mU.mg^-1. For the same compound, in experiment [2] (setting [12]), the “Specific activity, SEQ ID NO: 2” value is listed as 68.2^a mU.mg^-1. For the same compound, in experiment [3] (setting [11]), the “Specific activity, SEQ ID NO: 3” value is recorded as 245.6^b mU.mg^-1.

`CC1CC(=O)CC(C)C1` (centres unmarked): in experiment [1] (setting [11]), the “Specific activity, SEQ ID NO: 1” value was 9.7^b mU.mg^-1. In experiment [3] (setting [11]), the “Specific activity, SEQ ID NO: 3” value is 61.6^b mU.mg^-1.

Source of the values: patent publication US11118200B2, “Method for preparing amines from aldehydes and ketones by biocatalysis” (COMMISSARIAT A L'ENERGIE ATOMIQUE ET AUX ENERGIES …, priority 2017, dated 2021).
